{"source": "patent US20050101542A1", "about": "“Combination therapy for controlling appetites” (Regents of the University of California, priority 2002, published 2005)", "key": {"[1]": {"test_system": "retinoid X receptor (RXR)", "test": "GAL4 chimeric receptor transactivation assay in HeLa cells, RXR", "assay_type": "cell-based, human", "experimental": "Transactivator plasmids pFA-PPARα, pFA-PPARδ, pFA-PPARγ and pFA-RXR, which encoded for the […] Of hPPARα ? ((499-1404), hPPARδ (412-1320), hPPARγ (610-1434) and hRXR (402-1389) fused to the DNA-binding domain (residues 1-147) Of yeast GAL4 under control of the human cytomegalovirus (CMV) promoter were generated. The plasmids contained a neomycin-resistance gene to provide stable selection with G418 (200 μg-ml^−1; Calbiochem). The HeLa cells were cultured in Dulbecco's-modified Eagles's medium (DMEM) supplemented with fetal bovine serum (10%). The cells were transfected with Fugene 6 (3 μl, Roche) Containing the pFR-luc plasmid (1 μg, Stratagene). Eighteen hours following transfection, the culture media was replaced with supplemented DMEM containing hygromycin (100 μg-ml^−1, Calbiochem). After 4 weeks in culture, the surviving clones were isolated and analyzed by luciferase assay. […] The cells were cultured in supplemented DMEM containing hygromycin and G418. For transactivation assays, cells were seeded in 6-well plates (50,000 cells per well) and incubated for 7 hours in supplemented DMEM containing hygromycin and G418, plus appropriate concentrations of test compounds. Dual-luciferase reporter assay system (Promega) and an MLX Microtiter® plate luminometer (Dynex) were used to determine luciferase activity in cell lysates. […]"}, "[2]": {"test": "Liver OEA content after OEA injection in wild-type and PPAR-α null mice (HPLC/MS)", "assay_type": "in vivo, mouse", "conditions": "1 h after OEA 5 mg kg^−1 i.p."}, "human PPARδ": {"target": "T1, human PPARδ (Homo sapiens, UniProt Q03181)", "T1 construct": "expressed in transfected cells; host or cells: HeLa (clonal reporter line HLR, stably transfected with pFA-PPARδ)", "T1 sequence (Q03181 211-439 limits assumed)": "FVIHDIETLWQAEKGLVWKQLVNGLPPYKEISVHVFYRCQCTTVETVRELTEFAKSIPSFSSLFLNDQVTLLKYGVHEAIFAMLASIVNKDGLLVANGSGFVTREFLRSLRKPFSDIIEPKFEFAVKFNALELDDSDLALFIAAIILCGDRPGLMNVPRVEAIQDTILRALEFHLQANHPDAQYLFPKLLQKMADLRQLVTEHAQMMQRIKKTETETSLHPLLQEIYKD", "test": "GAL4 chimeric receptor transactivation assay in HeLa cells, PPARδ", "assay_type": "cell-based", "conditions": "read-out: EC50 for PPARβ activation", "experimental": "Eighteen hours following transfection, the culture media was replaced with supplemented DMEM containing hygromycin (100 μg-ml^−1, Calbiochem). After 4 weeks in culture, the surviving clones were isolated and analyzed by luciferase assay. […] The cells were cultured in supplemented DMEM containing hygromycin and G418. For transactivation assays, cells were seeded in 6-well plates (50,000 cells per well) and incubated for 7 hours in supplemented DMEM containing hygromycin and G418, plus appropriate concentrations of test compounds. Dual-luciferase reporter assay system (Promega) and an MLX Microtiter® plate luminometer (Dynex) were used to determine luciferase activity in cell lysates."}, "[3]": {"test": "OEA for 2 weeks in obese Zucker rats: serum lipids, glucose, food intake, body weight", "assay_type": "in vivo, rat", "experimental": "Subchronic experiments. Male wild-type and PPARα null mice were fed with a very high-fat diet (60 kcal % fat; D12492; Research Diets, NJ). […] The mice were divided into 4 groups (n=7-8 each), and treated them for 4 additional weeks with vehicle (saline/polyethylene glycol/Tween 80, 90/5/5; 1 ml-kg^−1) Or OEA (5 mg-kg^−1, once daily, i.p.). In a separate experiment, obese Zucker rats were treated for 2 weeks with vehicle or OEA (5 mg-kg^−1, once daily, i.p.), while maintaining them on a regular rodent chow (RMH 2500, Prolab). Food intake and body weight were measured daily. At the end of the experiments, the animals were fasted overnight, and tissues and blood samples collected for biochemical analyses.\nChronic experiment: In a separate experiment, we treated obese Zucker rats for 2 weeks with vehicle (saline/polyethylene glycol/Tween-80, 90/5/5; 1 ml kg^−1, once daily, i.p.) or OEA (5 mg kg^−1, once daily, i.p.), while maintaining them on a regular rodent chow (RMH 2500, Prolab). We measured food intake and body weight daily. At the end of the experiments, the animals were fasted overnight, and tissues and blood samples collected for biochemical analyses.\nLipids were extracted from mouse liver and epidydimal adipose tissue (Bligh and Dyer, 1959) and measured triglycerides with a commercial kit (Sigma). Serum lipids and glucose were measured with an automated Synchron LX® system (Beckman-Coulter)."}, "Astrocyte": {"test_system": "Astrocyte", "test": "[14C]oleate oxidation to ketone bodies in astrocytes", "assay_type": "cell-based, rat", "conditions": "30 min incubation", "description": "This example illustrates the effect of OEA on fat metabolism and methods for studying the same. Oleoylethanolamide (OEA) decreases body weight not only by suppressing appetite, but also by possibly enhancing body fat catabolism. The effects of OEA on fatty acid oxidation in major body-fat burning tissues (soleus muscle, liver, cultured cardiac myocytes and astrocytes) was examined. […] In addition, OEA induces a significant mobilization of triacylglycerol stores from primary white adipose tissue cells. Table 4 details the methods and effects of OEA on fatty acid oxidation in these cells. Structure-activity relationship experiments provide evidence that the effect of OEA on skeletal muscle fatty acid oxidation is specific (FIG. 8)."}, "[4]": {"conditions": "OEA 5 mg kg−1 i.p. once a day for 2 weeks"}}, "data": [{"smiles": "CCCCCCCC/C=C\\CCCCCCCC(=O)NCCO", "note": "[OEA, Z-2-hydroxyethyl octadec-9-enamide]", "values": [{"measurement": "effect on RXR", "setting": "[1]", "value": "no effect"}, {"measurement": "Liver OEA content", "setting": "[2]; PPAR-α-null mice", "value": "251.2 ± 28.2", "unit": "pmol/g"}, {"measurement": "Liver OEA content", "setting": "[2]; wild-type mice", "value": "150.5 ± 19.7", "unit": "pmol/g"}, {"measurement": "EC50", "setting": "human PPARδ", "value": "1.1 ± 0.1", "unit": "µM"}, {"measurement": "Serum cholesterol", "setting": "[3]; [4]", "value": "66.14 ± 7.06", "unit": "mg/dL"}, {"measurement": "Serum glucose", "setting": "[3]; [4]", "value": "221.25 ± 23.80", "unit": "mg/dL"}, {"measurement": "Serum triglycerides", "setting": "[3]; [4]", "value": "394.17 ± 49.40", "unit": "mg/dL"}, {"measurement": "food intake and body-weight gain", "setting": "[3]; OEA 5 mg-kg^−1 once daily for 2 weeks i.p.", "value": "significant inhibition"}, {"measurement": "Stimulatory effect of 10 μM OEA on [14C]oleate oxidation to ketone bodies", "setting": "Astrocyte", "value": "2 ± 6 (n = 3) %"}]}]}
